Experimental data from patent US11939331B2, “Tricyclic heterocycles as FGFR inhibitors” (Incyte Corporation, priority 2021, dated 2024).

The molecules below were run against wild-type un-phosphorylated FGFR3 protein (Homo sapiens, UniProt P22607) (assay: FGFR Enzymatic Assay (FRET peptide phosphorylation)).
Sequence of wild-type un-phosphorylated FGFR3 protein (P22607 23-806): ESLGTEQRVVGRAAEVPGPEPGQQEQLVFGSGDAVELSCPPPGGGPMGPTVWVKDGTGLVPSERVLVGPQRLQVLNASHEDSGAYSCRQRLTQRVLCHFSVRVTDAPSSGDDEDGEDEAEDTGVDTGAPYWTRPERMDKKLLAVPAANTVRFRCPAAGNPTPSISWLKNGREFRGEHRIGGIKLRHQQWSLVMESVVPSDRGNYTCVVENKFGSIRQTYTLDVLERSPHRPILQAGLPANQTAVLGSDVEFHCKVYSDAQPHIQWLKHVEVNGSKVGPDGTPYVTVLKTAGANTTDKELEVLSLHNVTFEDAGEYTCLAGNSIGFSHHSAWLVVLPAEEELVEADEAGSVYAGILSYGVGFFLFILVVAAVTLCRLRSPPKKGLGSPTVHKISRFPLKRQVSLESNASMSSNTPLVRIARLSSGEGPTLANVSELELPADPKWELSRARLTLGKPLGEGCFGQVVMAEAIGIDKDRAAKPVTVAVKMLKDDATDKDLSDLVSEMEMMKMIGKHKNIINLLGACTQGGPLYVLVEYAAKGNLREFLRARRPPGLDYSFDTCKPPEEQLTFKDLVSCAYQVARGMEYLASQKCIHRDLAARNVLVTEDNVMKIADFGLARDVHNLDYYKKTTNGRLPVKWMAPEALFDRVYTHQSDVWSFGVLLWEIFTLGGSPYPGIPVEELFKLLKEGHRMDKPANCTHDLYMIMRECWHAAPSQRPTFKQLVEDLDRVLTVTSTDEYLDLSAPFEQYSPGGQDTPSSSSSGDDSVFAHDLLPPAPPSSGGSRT
Method: The inhibitor potency of the exemplified compounds was determined in an enzyme discontinuous assay that measures peptide phosphorylation using FRET measurements to detect product formation. Inhibitors were serially diluted in DMSO and a volume of 0.2 μL was transferred to the wells of a 384-well plate. A 5 μL/well volume of enzyme isoforms of FGFR (-1, -2, -3 wild-type and mutant isoforms, -4) including phosphorylated and un-phosphorylated proteins diluted in assay buffer (50 mM HEPES, 10 mM MgCl2, 1 mM EGTA, 0.01% Tween-20, 5 mM DTT, pH 7.5) was added to the plate and pre-incubated with inhibitor for 5 to 15 minutes at ambient temperature. Appropriate controls (enzyme blank and enzyme with no inhibitor) were included on the plate. The reaction was initiated by the addition of a 5 μL/well volume containing both biotinylated [sequence] peptide substrate (SEQ ID NO: 1) and ATP in assay buffer. The 10 μL/well reaction concentration of the peptide substrate was 500 nM whereas the ATP concentration was maintained near or below the ATP Km. The ATP Km values were pre-determined in a separate series of experiments. The reaction plate was incubated at 25° C. for 1 hr and the reactions were ended with the addition of 5 μL/well of quench solution (50 mM Tris, 150 mM NaCl, 0.5 mg/mL BSA, pH 7.8; 45 mM EDTA, 600 nM staurosporin, with Perkin Elmer Lance Reagents at 3.75 nM Eu-antibody PY20 and 180 nM APC-Streptavidin). The plate was allowed to equilibrate for ˜10 minutes at ambient temperature before scanning on a PheraStar plate reader (BMG Labtech) instrument.
Either GraphPad prism or XLfit was used to analyze the data. The IC50 values were derived by fitting the data to a four parameter logistic equation producing a sigmoidal dose-response curve with a variable Hill coefficient. Prism equation: Y=Bottom+(Top−Bottom)/(1+10^((Log IC50−X)*Hill slope)); XLfit equation: Y=(A+((B−A)/(1+((X/C)^D)))) where X is the logarithm of inhibitor concentration and Y is the response.

Row | IC50 | SMILES
1 | < 0.1 nM | NC(=O)c1c(-c2c(Cl)cccc2Cl)nc2c3cc(-c4cnn(CC(F)(F)F)c4)cnc3ccn12 [Example 33, 2-(2,6-Dichlorophenyl)-9-(1-(2,2,2-trifluoroethyl)-1H-pyrazol-4-yl)imidazo[2,1-f][1,6]naphthyridine-3-carboxamide]
2 | < 0.1 nM | CN(C)CCn1cc(-c2cnc3ccn4c(C(N)=O)c(-c5c(Cl)cccc5Cl)nc4c3c2)cn1 [Example 34, 2-(2,6-Dichlorophenyl)-9-(1-(2-(dimethylamino)ethyl)-1H-pyrazol-4-yl)imidazo[2,1-f][1,6]naphthyridine-3-carboxamide]
3 | < 0.1 nM | COCC(C)(C)n1cc(-c2cnc3ccn4c(C(N)=O)c(-c5c(Cl)cccc5Cl)nc4c3c2)cn1 [Example 35, 2-(2,6-Dichlorophenyl)-9-(1-(1-methoxy-2-methylpropan-2-yl)-1H-pyrazol-4-yl)imidazo[2,1-f][1,6]naphthyridine-3-carboxamide]
4 | < 0.1 nM | CC(O)Cn1cc(-c2cnc3ccn4c(C(N)=O)c(-c5c(Cl)cccc5Cl)nc4c3c2)cn1 (centres unmarked) [Example 36, 2-(2,6-Dichlorophenyl)-9-(1-(2-hydroxypropyl)-1H-pyrazol-4-yl)imidazo[2,1-f][1,6]naphthyridine-3-carboxamide]
5 | < 0.1 nM | CN(C)CCCn1cc(-c2cnc3ccn4c(C(N)=O)c(-c5c(Cl)cccc5Cl)nc4c3c2)cn1 [Example 37, 2-(2,6-Dichlorophenyl)-9-(1-(3-(dimethylamino)propyl)-1H-pyrazol-4-yl)imidazo[2,1-f][1,6]naphthyridine-3-carboxamide]
6 | 0.1 to 1 nM | NC(=O)c1c(-c2c(Cl)cccc2Cl)nc2c3cc(-c4ccc(=O)[nH]c4)cnc3ccn12 [Example 39, 2-(2,6-Dichlorophenyl)-9-(6-oxo-1,6-dihydropyridin-3-yl)imidazo[2,1-f][1,6]naphthyridine-3-carboxamide]
7 | 1 to 10 nM | CC(C)c1[nH]ncc1-c1cnc2ccn3c(C(N)=O)c(-c4c(Cl)cccc4Cl)nc3c2c1 [Example 40, 2-(2,6-Dichlorophenyl)-9-(5-isopropyl-1H-pyrazol-4-yl)imidazo[2,1-f][1,6]naphthyridine-3-carboxamide]
8 | 0.1 to 1 nM | NC(=O)c1c(-c2c(Cl)cccc2Cl)nc2c3cc(-c4cnn5c4CCC5)cnc3ccn12 [Example 41, 2-(2,6-Dichlorophenyl)-9-(5,6-dihydro-4H-pyrrolo[1,2-b]pyrazol-3-yl)imidazo[2,1-f][1,6]naphthyridine-3-carboxamide]
9 | 1 to 10 nM | CC(C)(O)c1cncc(-c2cnc3ccn4c(C(N)=O)c(-c5c(Cl)cccc5Cl)nc4c3c2)c1 [Example 42, 2-(2,6-Dichlorophenyl)-9-(5-(2-hydroxypropan-2-yl)pyridin-3-yl)imidazo[2,1-f][1,6]naphthyridine-3-carboxamide]
10 | 0.1 to 1 nM | CNc1ncc(-c2cnc3ccn4c(C(N)=O)c(-c5c(Cl)cccc5Cl)nc4c3c2)cn1 [Example 43, 2-(2,6-Dichlorophenyl)-9-(2-(methylamino)pyrimidin-5-yl)imidazo[2,1-f][1,6]naphthyridine-3-carboxamide]
11 | < 0.1 nM | NC(=O)c1c(-c2c(Cl)cccc2Cl)nc2c3cc(-c4cnn(C5CCOC5)c4)cnc3ccn12 (centres unmarked) [Example 44, 2-(2,6-Dichlorophenyl)-9-(1-(tetrahydrofuran-3-yl)-1H-pyrazol-4-yl)imidazo[2,1-f][1,6]naphthyridine-3-carboxamide]
12 | 0.1 to 1 nM | NC(=O)c1c(-c2c(Cl)cccc2Cl)nc2c3cc(-c4cnn(CCN5CCOCC5)c4)cnc3ccn12 [Example 45, 2-(2,6-Dichlorophenyl)-9-(1-(2-morpholinoethyl)-1H-pyrazol-4-yl)imidazo[2,1-f][1,6]naphthyridine-3-carboxamide]
13 | 0.1 to 1 nM | CN1CCN(CCn2cc(-c3cnc4ccn5c(C(N)=O)c(-c6c(Cl)cccc6Cl)nc5c4c3)cn2)CC1 [Example 46, 2-(2,6-Dichlorophenyl)-9-(1-(2-(4-methylpiperazin-1-yl)ethyl)-1H-pyrazol-4-yl)imidazo[2,1-f][1,6]naphthyridine-3-carboxamide]
14 | < 0.1 nM | NC(=O)c1c(-c2c(Cl)cccc2Cl)nc2c3cc(-c4cnn(CCCO)c4)cnc3ccn12 [Example 47, 2-(2,6-Dichlorophenyl)-9-(1-(3-hydroxypropyl)-1H-pyrazol-4-yl)imidazo[2,1-f][1,6]naphthyridine-3-carboxamide]
15 | < 0.1 nM | N#CCCn1cc(-c2cnc3ccn4c(C(N)=O)c(-c5c(Cl)cccc5Cl)nc4c3c2)cn1 [Example 48, 9-(1-(2-Cyanoethyl)-1H-pyrazol-4-yl)-2-(2,6-dichlorophenyl)imidazo[2,1-f][1,6]naphthyridine-3-carboxamide]
16 | < 0.1 nM | NC(=O)Cn1cc(-c2cnc3ccn4c(C(N)=O)c(-c5c(Cl)cccc5Cl)nc4c3c2)cn1 [Example 49, 9-(1-(2-Amino-2-oxoethyl)-1H-pyrazol-4-yl)-2-(2,6-dichlorophenyl)imidazo[2,1-f][1,6]naphthyridine-3-carboxamide]
17 | 0.1 to 1 nM | CC(C)(O)c1ccc(-c2cnc3ccn4c(C(N)=O)c(-c5c(Cl)cccc5Cl)nc4c3c2)cn1 [Example 50, 2-(2,6-Dichlorophenyl)-9-(6-(2-hydroxypropan-2-yl)pyridin-3-yl)imidazo[2,1-f][1,6]naphthyridine-3-carboxamide]
18 | 0.1 to 1 nM | NC(=O)c1c(-c2c(Cl)cccc2Cl)nc2c3cc(-c4ccc(CC(F)(F)F)nc4)cnc3ccn12 [Example 51, 2-(2,6-Dichlorophenyl)-9-(6-(2,2,2-trifluoroethyl)pyridin-3-yl)imidazo[2,1-f][1,6]naphthyridine-3-carboxamide]
19 | 0.1 to 1 nM | CNC(=O)c1ccc(-c2cnc3ccn4c(C(N)=O)c(-c5c(Cl)cccc5Cl)nc4c3c2)cn1 [Example 52, 2-(2,6-Dichlorophenyl)-9-(6-(methylcarbamoyl)pyridin-3-yl)imidazo[2,1-f][1,6]naphthyridine-3-carboxamide]
20 | < 0.1 nM | NC(=O)c1c(-c2c(Cl)cccc2Cl)nc2c3cc(C4=CCC(O)CC4)cnc3ccn12 (centres unmarked) [Example 53, 2-(2,6-Dichlorophenyl)-9-(4-hydroxycyclohex-1-en-1-yl)imidazo[2,1-f][1,6]naphthyridine-3-carboxamide]
21 | 10 to 50 nM | CC(C)(O)c1cnc2ccn3c(C(N)=O)c(-c4c(Cl)cccc4Cl)nc3c2c1 [Example 55, 2-(2,6-Dichlorophenyl)-9-(2-hydroxypropan-2-yl)imidazo[2,1-f][1,6]naphthyridine-3-carboxamide]
22 | 10 to 50 nM | Cc1nc2c3cc(-c4cnn(C5CCOCC5)c4)cnc3ccn2c1C(N)=O [Example 57, 2-Methyl-9-(1-(tetrahydro-2H-pyran-4-yl)-1H-pyrazol-4-yl)imidazo[2,1-f][1,6]naphthyridine-3-carboxamide]
23 | 10 to 50 nM | NC(=O)c1cnc2c3cc(-c4cnn(C5CCOCC5)c4)cnc3ccn12 [Example 58, 9-(1-(Tetrahydro-2H-pyran-4-yl)-1H-pyrazol-4-yl)imidazo[2,1-f][1,6]naphthyridine-3-carboxamide]
